Laboratory results: PMC10746708, “A small molecule iCDM-34 identified by in silico screening suppresses HBV DNA through activation of aryl hydrocarbon receptor” (Cell Death Discovery, 2023)

Key:
[1] = Liver microsomal stability, rat; type: in vitro ADME; conditions: rat liver microsomes
Protocol: (§1) Liver microsome stability studies (human, mouse, and rat) were performed at Sumika Chemical Analysis Service (Osaka, Japan) by following an established procedure. A mixture of 1 μM of substrate, 0.5 mg protein/mL of microsomes, and […] β-NADPH was incubated for 30 or 60 min and % remaining substrate was quantitatively measured by LC-MS/MS.

[2] = Liver microsomal stability, mouse; type: in vitro ADME; conditions: mouse liver microsomes
Protocol: as §1

[3] = 1 μM substrate, 0.5 mg protein/mL, 30 min
[4] = 1 μM substrate, 0.5 mg protein/mL, 60 min

`O=C(Nc1ccc(Br)cc1)c1ccn(Cn2cc([N+](=O)[O-])cn2)n1` [iCDM-34] gave a half-life at 1 μM [1] of 199 min, a remaining at 0.5 h, 1 μM [1, 3] of 90.2 ± 0.5% and a remaining at 1 h, 1 μM [1, 4] of 85.2 ± 0.3%. It also gave a half-life at 1 μM [2] of 33.1 min, a remaining at 0.5 h, 1 μM [2, 3] of 41.2 ± 0.4% and a remaining at 1 h, 1 μM [2, 4] of 21 ± 0.8%.
